Results on eleven molecules are retold here after ChEMBL document CHEMBL1157437, “Synthesis and biological activities of reveromycin A and spirofungin A derivatives” (Bioorg Med Chem Lett, 2008).

As a reminder, the IC50 is the point on the concentration scale where inhibition reaches its midpoint. Broadly, the inhibition is the share of the control response that was lost under treatment.

SMILES strings stand for the structures.

Experiment [1] deals with T1, Isoleucine--tRNA ligase, cytoplasmic (Homo sapiens, UniProt P41252).
T1 sequence (P41252 whole entry): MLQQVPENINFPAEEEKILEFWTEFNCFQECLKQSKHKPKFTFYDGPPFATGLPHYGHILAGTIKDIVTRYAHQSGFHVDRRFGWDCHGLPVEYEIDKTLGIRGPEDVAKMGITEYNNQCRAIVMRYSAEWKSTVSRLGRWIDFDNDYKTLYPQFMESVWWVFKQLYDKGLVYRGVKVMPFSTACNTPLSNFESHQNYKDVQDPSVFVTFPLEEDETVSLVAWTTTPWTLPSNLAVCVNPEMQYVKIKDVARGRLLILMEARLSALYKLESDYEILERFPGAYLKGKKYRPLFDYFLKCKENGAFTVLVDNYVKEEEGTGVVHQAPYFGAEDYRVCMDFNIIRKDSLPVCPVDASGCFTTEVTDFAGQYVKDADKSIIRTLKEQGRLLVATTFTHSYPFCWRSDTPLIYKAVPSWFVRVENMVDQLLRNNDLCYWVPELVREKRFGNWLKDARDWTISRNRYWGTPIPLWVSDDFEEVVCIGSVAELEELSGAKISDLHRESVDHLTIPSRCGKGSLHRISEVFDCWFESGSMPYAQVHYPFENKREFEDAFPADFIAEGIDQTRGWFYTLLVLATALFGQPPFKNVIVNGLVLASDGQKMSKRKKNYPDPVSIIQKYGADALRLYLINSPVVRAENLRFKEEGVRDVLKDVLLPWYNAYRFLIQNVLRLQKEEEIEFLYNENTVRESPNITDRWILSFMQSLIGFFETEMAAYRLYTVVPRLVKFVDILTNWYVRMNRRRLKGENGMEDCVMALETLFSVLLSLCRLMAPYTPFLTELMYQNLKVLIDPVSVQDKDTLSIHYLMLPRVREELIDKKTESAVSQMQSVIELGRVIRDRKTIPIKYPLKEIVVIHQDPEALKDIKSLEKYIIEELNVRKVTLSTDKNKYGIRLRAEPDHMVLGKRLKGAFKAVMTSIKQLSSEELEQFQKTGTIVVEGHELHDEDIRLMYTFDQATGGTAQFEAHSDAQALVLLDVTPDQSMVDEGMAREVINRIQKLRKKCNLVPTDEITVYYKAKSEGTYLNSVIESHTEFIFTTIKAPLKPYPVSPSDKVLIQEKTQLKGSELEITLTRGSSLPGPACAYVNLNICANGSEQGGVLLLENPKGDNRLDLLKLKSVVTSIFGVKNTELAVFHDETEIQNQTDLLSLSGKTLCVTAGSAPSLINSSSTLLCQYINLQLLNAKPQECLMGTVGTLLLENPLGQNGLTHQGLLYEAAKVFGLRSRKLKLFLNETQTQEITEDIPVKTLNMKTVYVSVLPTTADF
The experiment is described as follows: Inhibition of IleRS.

The test system of experiment [2] is NRK. The experiment in a line: Effect on morphological reversion in src transformed NRK cells at 10 ug/mL. Format: functional. The settings on record: Rattus norvegicus.
The subject of experiment [3] is NRK. The experiment is described as follows: Effect on morphological reversion in src transformed NRK cells at 100 ug/mL. Format: functional. Conditions: Rattus norvegicus.
For experiment [4], the system named is NRK. The experiment in a line: Effect on morphological reversion in src transformed NRK cells at 30 ug/mL. It is filed as functional. The settings on record: Rattus norvegicus.
The subject of experiment [5] is NRK. The experiment is described as follows: Effect on morphological reversion in src transformed NRK cells at 3 ug/mL. The settings on record: Rattus norvegicus. It is filed as functional.
In the next experiment the test system is Osteoclast. The experiment is described as follows: Induction of apoptosis in mouse osteoclasts. Format: functional.

In experiment [1], `CCCC[C@@]1(OC)CC[C@]2(CC[C@H](C)[C@@H](C/C=C(C)/C=C/[C@H](O)[C@@H](C)/C=C/C(=O)O)O2)O[C@H]1/C=C/C(C)=C/C(=O)O` gave an IC50 of 101 nM. This molecule came in with an inhibition at 10 µg/mL in the experiment on NRK [2] of 20%. The molecule further came in with an inhibition at 100 µg/mL in the experiment on NRK [3] above 80%. In the experiment on NRK [4], this molecule showed an inhibition at 30 µg/mL above 80%.

Molecule `CCCC[C@@]1(OC(=O)CCC(=O)O)CC[C@]2(CC[C@H](C)[C@@H](C/C=C(C)/C=C/[C@H](OC)[C@@H](C)/C=C/C(=O)O)O2)O[C@H]1/C=C/C(C)=C/C(=O)O` showed an IC50 in experiment [1] of 554 nM. The molecule also registered an inhibition at 3 µg/mL in the experiment on NRK [5] below 10%. In the experiment on NRK [3], this molecule yielded an inhibition at 100 µg/mL below 10%. The Activity in the experiment on Osteoclast was above 15 µg/mL.

In experiment [1], `CCCC[C@@]1(O)CC[C@]2(CC[C@H](C)[C@@H](C/C=C(C)/C=C/[C@H](O)[C@@H](C)/C=C/C(=O)O)O2)O[C@H]1/C=C/C(C)=C/C(=O)O` showed an IC50 of 169 nM. Besides, in the experiment with NRK [3], the inhibition at 100 µg/mL is below 10%. In the experiment on Osteoclast, this molecule had an Activity of 11.5 µg/mL.

In the case of `CCCC[C@@]1(OCSC)CC[C@]2(CC[C@H](C)[C@@H](C/C=C(C)/C=C/[C@H](O)[C@@H](C)/C=C/C(=O)O)O2)O[C@H]1/C=C/C(C)=C/C(=O)O`, half-maximal inhibition in experiment [1] (IC50) was put at 801 nM. Also, in the experiment on NRK [2], the inhibition at 10 µg/mL is below 10%. This molecule also yielded an inhibition at 100 µg/mL in the experiment on NRK [3] above 80%. The same molecule showed an inhibition at 30 µg/mL in the experiment with NRK [4] of 20%. The same molecule returned an Activity in the experiment with Osteoclast of 9.6 µg/mL.

In experiment [1], `CCCC[C@@]1(OC(=O)CCC(=O)O)CC[C@]2(CC[C@H](C)[C@@H](C/C=C(C)/C=C/[C@H](O[Si](C)(C)C(C)(C)C)[C@@H](C)/C=C/C(=O)O)O2)O[C@H]1/C=C/C(C)=C/C(=O)O` yielded an IC50 above 1290 nM. This molecule displayed an inhibition at 100 µg/mL in the experiment with NRK [3] below 10%. The Activity in the experiment on Osteoclast was found to be 5.9 µg/mL.

Take `CCCC[C@@]1(OC(=O)CCC(=O)O)CC[C@]2(CC[C@H](C)[C@@H](CCO)O2)O[C@H]1/C=C/C(C)=C/C(=O)O`: the 50% inhibitory concentration (IC50) in experiment [1] is above 2010 nM. Further, in the experiment on NRK [5], the inhibition at 3 µg/mL is below 10%. In the experiment on NRK [2], this molecule yielded an inhibition at 10 µg/mL below 10%. The same molecule showed an inhibition at 100 µg/mL with NRK [3] below 10%. Further, the inhibition at 30 µg/mL in the experiment with NRK [4] was below 10%.

In experiment [1], `CCCC[C@@]1(OC(=O)CCC(=O)O)CC[C@]2(CC[C@H](C)[C@@H](C/C=C(C)/C=C/C(=O)O)O2)O[C@H]1/C=C/C(C)=C/C(=O)O` gave an IC50 above 1730 nM. This molecule also showed an inhibition at 3 µg/mL in the experiment with NRK [5] below 10%. Moreover, the inhibition at 10 µg/mL in the experiment on NRK [2] is below 10%. In the experiment with NRK [3], this molecule yielded an inhibition at 100 µg/mL below 10%. In the experiment on NRK [4], this molecule gave an inhibition at 30 µg/mL below 10%.

In the case of `CCCC[C@@]1(OC(=O)CCC(=O)O)CC[C@]2(CC[C@H](C)[C@@H](C/C=C(C)/C=C/CO)O2)O[C@H]1/C=C/C(C)=C/C(=O)O`, the IC50 in experiment [1] is 996 nM. The same molecule yielded an inhibition at 3 µg/mL in the experiment with NRK [5] below 10%. Besides, in the experiment with NRK [2], the inhibition at 10 µg/mL was below 10%. In addition, the inhibition at 100 µg/mL with NRK [3] was below 10%. Further, the inhibition at 30 µg/mL in the experiment on NRK [4] was below 10%.

Turning to `CCCC[C@@]1(OC(=O)CCC(=O)O)CC[C@]2(CC[C@H](C)[C@@H](C/C=C(\C)COC(=O)CCC(=O)O)O2)O[C@H]1/C=C/C(C)=C/C(=O)O`, the IC50 in experiment [1] was above 1570 nM. The molecule further gave an inhibition at 3 µg/mL in the experiment with NRK [5] below 10%. In addition, the inhibition at 10 µg/mL in the experiment with NRK [2] is below 10%. In the experiment on NRK [3], this molecule had an inhibition at 100 µg/mL below 10%. This molecule also came in with an inhibition at 30 µg/mL in the experiment with NRK [4] below 10%. This molecule also came in with an Activity in the experiment on Osteoclast above 15 µg/mL.

Molecule `CCCC[C@@]1(OC(=O)CCC(=O)O)CC[C@]2(CC[C@H](C)[C@@H](C/C=C(\C)CO)O2)O[C@H]1/C=C/C(C)=C/C(=O)O` yielded an IC50 in experiment [1] above 1860 nM. Further, in the experiment with NRK [5], the inhibition at 3 µg/mL is below 10%. In addition, the inhibition at 10 µg/mL with NRK [2] is below 10%. This molecule came in with an inhibition at 100 µg/mL in the experiment on NRK [3] below 10%. This molecule also yielded an inhibition at 30 µg/mL in the experiment with NRK [4] below 10%.

`CCCC[C@]1([C@H](/C=C/C(C)=C/C(=O)O)OC(=O)CCC(=O)O)CC[C@]2(CC[C@H](C)[C@@H](C/C=C(C)/C=C/[C@H](O)[C@@H](C)/C=C/C(=O)O)O2)O1` [REVEROMYCIN B] came in with an IC50 in experiment [1] above 1510 nM. Besides, the inhibition at 3 µg/mL in the experiment on NRK [5] is below 10%. Moreover, the inhibition at 100 µg/mL with NRK [3] is below 10%. The same molecule had an Activity in the experiment with Osteoclast above 15 µg/mL.
